Measurements as given in patent US9193710B2, “Benzodiazepinones as modulators of metabotropic glutamate receptor functions and neurological uses thereof” (SANFORD-BURNHAM MEDICAL RESEARCH INSTITUTE, priority 2011, dated 2015).
Entries after “also recorded” stand apart in the source; their conditions may differ. Where two headings read alike, the source gives them in different places.

Experiments:
Format in all cases: cell-based
[1] = test system: human neural stem cells (hNSCs); assay: Neuronal differentiation of human neural stem cells; set-up: key to Inhibition by LY-354740 / Inhibition by DCG-IV: I—Inhibition; conditions: for EC50: Homo sapiens, Neural stem cell; for Inhibition by DCG-IV: inhibition of the compound-induced neurogenesis by the mGluR2/3 agonist DCG-IV; for Inhibition by LY-354740: inhibition of the compound-induced neurogenesis by the group II mGlu agonist LY-354740
Procedure: FIG. 1 is a dose-response curve showing the effect of Compound 1 (8-bromo-4-(pyridazin-4-yl)-1H-benzo[b][1,4]diazepin-2(3H)-one) and DCG-IV, an mGluR2/3 agonist, alone and in combination on neuronal differentiation of cultured human neural stem cells (hNSCs). When run independently, each compound was tested in a concentration response curve ranging from 0.01 μM to 31.6 μM. Data are presented as the percentage of the neuronal positive control, with basal media values subtracted. […] In combination, the compounds were combined at equal concentrations at each point (for example, the first point in the combined curve consisted of a test of 0.01 μM Compound 1 and 0.01 μM DCG-IV).
Human neural stem cells (hNSCs) were isolated and grown in monolayer culture, plated, treated with varying concentrations of 8-bromo-4-(pyridazin-4-yl)-1H-benzo[b][1,4]diazepin-2(3H)-one (Compound 1), and stained with TUJ-1 antibody, as described in U.S. Patent Application Publication No. US2007/0015138. Mitogen-free test media with a positive control for neuronal differentiation was used along with basal media without growth factors as a negative control. […] The data are presented as a percent of neuronal positive control.
The same protocol used for exemplary Compound 1 (FIG. 1 and Example 55) was used to test these compounds. LY-354740 (eglumegad) is an agonist of the group II mGlu receptors.

mGluR3 = target: T1, mGluR3 (Homo sapiens, UniProt Q14832); assay: Functional assay (FLIPR), mGluR3; conditions: class symbols: IC50 or inhibition at fixed concentration; CHO cells over-expressing mGluR3, calcium signal
T1 construct: expressed in transfected cells; transient Galpha16 co-transfection
Procedure: (§1) The compounds are further characterized through functional assays known in the art for studying potential mGluR agents. As a non-limiting example, the assay may be conducted as follows. Chinese hamster ovary (CHO) cells stably over-expressing either mGluR2 or mGluR3 are seeded into multiwell plates and transiently transfected overnight at 37° C. with a cDNA construct expressing G-protein coupled to intracellular calcium such as Gα16. The following day cells are washed with Hank's balanced salt solution containing calcium and magnesium. Cells are loaded for 1-2 hours with a calcium dye such as Fluo4 at 37° C.
The test compound may be added prior to or concurrent with the loading of the cells with Fluo4. Pre-incubation with compounds can vary from 5 minutes up 2 hours. Pre-incubation is done if the assay is testing for antagonists, positive allosteric modulators or negative allosteric modulators. No pre-incubation is done if the assay is testing for agonist activity. For testing antagonists or negative allosteric modulators an EC80 of the endogenous ligand, glutamate, is used. For testing positive allosteric modulators an EC20 of the endogenous ligand, glutamate, is used. Cells plates are loaded into a real-time fluorescence reader such as the FLIPR Tetra or the Flexstation 3. A base line is recorded for 15 seconds before cells are stimulated with either glutamate or other agonists. The real-time fluorescent signal is recorded for another 2 minutes. The peak of the fluorescent signal is determined. Data are either expressed as percent of the glutamate response in terms of a single determination or concentration curves are fitted with a four parameter logistic equation giving EC50 or IC50 values.

mGluR2 = target: T2, mGluR2 (Homo sapiens, UniProt Q14416); assay: Functional assay (FLIPR), mGluR2; conditions: class symbols: IC50 or inhibition at fixed concentration; CHO cells over-expressing mGluR2, calcium signal
T2 construct: expressed in transfected cells; transient Galpha16 co-transfection
Procedure: as §1
The test compound may be added prior to or concurrent with the loading of the cells with Fluo4. Pre-incubation with compounds can vary from 5 minutes up 2 hours. […] Cells plates are loaded into a real-time fluorescence reader such as the FLIPR Tetra or the Flexstation 3. A base line is recorded for 15 seconds before cells are stimulated with either glutamate or other agonists. The real-time fluorescent signal is recorded for another 2 minutes. The peak of the fluorescent signal is determined. Data are either expressed as percent of the glutamate response in terms of a single determination or concentration curves are fitted with a four parameter logistic equation giving EC50 or IC50 values.

[2] = neuronal differentiation of hNSCs, TUJ-1 staining, read-out: Neurogenesis EC50

T1 sequence (Q14832 23-879): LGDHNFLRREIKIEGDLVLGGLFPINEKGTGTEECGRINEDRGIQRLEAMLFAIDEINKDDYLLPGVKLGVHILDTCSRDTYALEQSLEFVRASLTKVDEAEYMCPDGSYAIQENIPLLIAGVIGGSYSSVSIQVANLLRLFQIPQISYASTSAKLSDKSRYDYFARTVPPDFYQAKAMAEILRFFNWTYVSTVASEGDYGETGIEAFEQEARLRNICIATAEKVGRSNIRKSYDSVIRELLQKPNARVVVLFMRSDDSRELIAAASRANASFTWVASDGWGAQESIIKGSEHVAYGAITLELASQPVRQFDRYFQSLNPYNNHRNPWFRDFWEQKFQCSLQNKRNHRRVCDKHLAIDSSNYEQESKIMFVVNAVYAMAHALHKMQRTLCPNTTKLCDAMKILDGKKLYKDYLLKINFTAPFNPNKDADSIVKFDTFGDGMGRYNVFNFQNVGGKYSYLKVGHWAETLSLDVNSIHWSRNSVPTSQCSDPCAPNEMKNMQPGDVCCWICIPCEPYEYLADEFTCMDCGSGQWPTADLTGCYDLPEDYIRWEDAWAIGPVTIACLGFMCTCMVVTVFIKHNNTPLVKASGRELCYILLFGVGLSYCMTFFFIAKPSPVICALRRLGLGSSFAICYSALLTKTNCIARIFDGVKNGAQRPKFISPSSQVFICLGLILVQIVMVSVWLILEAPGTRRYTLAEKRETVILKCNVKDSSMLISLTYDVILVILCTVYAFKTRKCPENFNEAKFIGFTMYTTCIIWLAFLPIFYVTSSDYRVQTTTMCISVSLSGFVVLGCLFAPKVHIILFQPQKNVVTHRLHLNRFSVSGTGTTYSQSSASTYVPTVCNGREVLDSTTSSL
T2 sequence (Q14416 19-872): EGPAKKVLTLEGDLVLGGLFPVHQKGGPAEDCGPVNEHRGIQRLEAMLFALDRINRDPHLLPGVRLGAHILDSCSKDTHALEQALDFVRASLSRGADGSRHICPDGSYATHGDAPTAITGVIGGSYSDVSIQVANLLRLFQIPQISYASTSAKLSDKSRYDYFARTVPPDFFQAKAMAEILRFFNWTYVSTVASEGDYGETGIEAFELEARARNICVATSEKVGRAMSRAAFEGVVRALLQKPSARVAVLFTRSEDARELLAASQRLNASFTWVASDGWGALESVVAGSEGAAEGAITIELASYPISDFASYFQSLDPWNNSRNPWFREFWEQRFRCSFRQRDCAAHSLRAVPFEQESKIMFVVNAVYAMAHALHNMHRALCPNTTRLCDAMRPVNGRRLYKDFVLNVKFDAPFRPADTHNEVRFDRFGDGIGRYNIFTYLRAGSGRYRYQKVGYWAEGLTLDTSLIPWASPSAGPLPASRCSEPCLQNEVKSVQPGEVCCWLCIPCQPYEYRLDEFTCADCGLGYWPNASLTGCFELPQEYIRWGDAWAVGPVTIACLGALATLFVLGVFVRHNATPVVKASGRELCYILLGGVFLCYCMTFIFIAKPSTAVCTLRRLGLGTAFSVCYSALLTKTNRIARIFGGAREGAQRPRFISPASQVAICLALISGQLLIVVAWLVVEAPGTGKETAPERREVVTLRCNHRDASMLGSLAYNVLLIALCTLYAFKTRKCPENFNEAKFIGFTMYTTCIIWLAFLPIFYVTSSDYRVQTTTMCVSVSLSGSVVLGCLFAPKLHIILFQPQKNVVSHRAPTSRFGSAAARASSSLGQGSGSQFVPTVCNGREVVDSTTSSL

| EC50 [1, 2] [µM] | Compound | other results |
| --- | --- | --- |
| 1 to 5 | O=C1CC(c2ccnnc2)=Nc2ccc(Br)cc2N1 [Compound 1, 8-bromo-4-(pyridazin-4-yl)-1H-benzo[b][1,4]diazepin-2(3H)-one] | effect on neuronal differentiation (neurogenesis), tested alone ([1]; FIG. 1, 0.01 μM to 31.6 μM): promoted neuronal differentiation in a concentration dependent manner; neurogenesis in combination with DCG-IV ([1]; FIG. 1, Compound 1 and DCG-IV at equal concentrations (1:1 ratio) at each point): no noted neurogenesis; also recorded: did not induce neurogenesis; EC50 ([1]; FIG. 1, 0.01 μM to 31.6 μM, percentage of neuronal positive control, basal media subtracted, read-out: EC50, neuronal differentiation dose-response curve): 2.53 µM; Inhibition by DCG-IV [1]: I |
| 1 to 5 | O=C1CC(c2ccnnc2)=Nc2ccc(C(F)(F)F)cc2N1 [Compound 2, 8-trifluoromethyl-4-(pyridazin-4-yl)-1H-benzo[b][1,4]diazepin-2(3H)-one] | Inhibition by LY-354740 [1]: I |
| 1 to 5 | O=C1CC(c2ccnnc2)=Nc2ccc(I)cc2N1 [Compound 3, 8-iodo-4-(pyridazin-4-yl)-1H-benzo[b][1,4]diazepin-2(3H)-one] | Inhibition by LY-354740 [1]: I |
| 1 to 5 | COC(=O)c1ccc2c(c1)NC(=O)CC(c1ccnnc1)=N2 [Compound 4, Methyl 2-oxo-4-(pyridazin-4-yl)-2,3-dihydro-1H-benzo[b][1,4]diazepine-8-carboxylate] |  |
| < 1 | O=C1CC(c2ccnnc2)=Nc2ccc(Cl)cc2N1 [Compound 5, 8-chloro-4-(pyridazin-4-yl)-1H-benzo[b][1,4]diazepin-2(3H)-one] |  |
| 1 to 5 | O=C1CC(c2ccnnc2)=Nc2ccc(F)cc2N1 [Compound 6, 8-fluoro-4-(pyridazin-4-yl)-1H-benzo[b][1,4]diazepin-2(3H)-one] |  |
| > 5 | O=C1CC(c2cncnc2)=Nc2ccc(Br)cc2N1 [Compound 7, 8-Bromo-4-(pyrimidin-3-yl)-1H-benzo[b][1,4]diazepin-2(3H)-one] |  |
| > 5 | O=C1CC(c2cnccn2)=Nc2ccc(Br)cc2N1 [Compound 8, 8-Bromo-4-(pyrazin-2-yl)-1H-benzo[b][1,4]diazepin-2(3H)-one] |  |
| 1 to 5 | Cc1ccc(C2=Nc3ccc(Br)cc3NC(=O)C2)nn1 [Compound 9] |  |
| 1 to 5 | O=C1CC(c2ccc(Cl)nn2)=Nc2ccc(Br)cc2N1 [Compound 10] |  |
| < 1 | O=C1CC(c2ccnnc2)=Nc2ccc(C(=O)O)cc2N1 [Compound 12, 2-oxo-4-(pyridazin-4-yl)-2,3-dihydro-1H-benzo[b][1,4]diazepine-8-carboxylic acid] | Inhibition by LY-354740 [1]: I |
| > 5 | Cc1cc2c(cc1C)NC(=O)CC(c1ccnnc1)=N2 [Compound 13, 7,8-Dimethyl-4-(pyridazin-4-yl)-1H-benzo[b][1,4]diazepin-2(3H)-one] |  |
| 1 to 5 | O=C1CC(c2ccnnc2)=Nc2ccc(-c3cccs3)cc2N1 [Compound 15, 8-(Thiophen-2-yl)-4-(pyridazin-4-yl)-1H-benzo[b][1,4]diazepin-2(3H)-one] | Inhibition by LY-354740 [1]: I; Inhibition by DCG-IV [1]: I |
| > 5 | O=C1CC(c2ccnnc2)=Nc2ccc(-c3ccccc3F)cc2N1 [Compound 16, 8-(2-Fluorophenyl)-4-(pyridazin-4-yl)-1H-benzo[b][1,4]diazepin-2(3H)-one] |  |
| > 5 | COc1ccc(-c2ccc3c(c2)NC(=O)CC(c2ccnnc2)=N3)cc1OC [Compound 17, 8-(3,4-Dimethoxyphenyl)-4-(pyridazin-4-yl)-1H-benzo[b][1,4]diazepin-2(3H)-one] |  |
|  | O=C1CC(c2ccc(O)nn2)=Nc2ccc(Br)cc2N1 [Compound 33, 8-Bromo-4-(6-hydroxypyridazin-3-yl)-1H-benzo[b][1,4]diazepin-2(3H)-one] | mGluR3 FLIPR (mGluR3): B (B=inhibition at 101.1M>50%) |
|  | O=C1CC(c2ccc3[nH]c(=O)sc3c2)=Nc2ccc(Br)cc2N1 [Compound 35, 6-(8-bromo-2-oxo-2,3-dihydro-1H-benzo[b][1,4]diazepin-4-yl)benzo[d]thiazol-2(3H)-one] | mGluR3 FLIPR (mGluR3): C (C=inhibition at 101.1M<50%) |
|  | O=C1CC(c2ccc3[nH]c(=O)sc3c2)=Nc2ccc(C#Cc3ccccc3F)cc2N1 [Compound 36, 6-(8-((2-fluorophenyl)ethynyl)-2-oxo-2,3-dihydro-1H-benzo[b][1,4]diazepin-4-yl)benzo[d]thiazol-2(3H)-one] | mGluR3 FLIPR (mGluR3): C (C=inhibition at 101.1M<50%) |
|  | O=C1CC(c2cccc(Br)c2)=Nc2ccc(NC(=O)OCc3ccccc3)cc2N1 [Compound 82, benzyl(4-(3-bromophenyl)-2-oxo-2,3-dihydro-1H-benzo[b][1,4]diazepin-8-yl)carbamate] | mGluR2 FLIPR (mGluR2): A (A=IC50<1 μM) |
|  | N[C@H](C(=O)O)C1[C@@H](C(=O)O)[C@@H]1C(=O)O (some centres unmarked) [DCG-IV, reference compound] | effect on neuronal differentiation (neurogenesis), tested alone ([1]; FIG. 1, 0.01 μM to 31.6 μM): no effect; also recorded: did not induce neurogenesis |
